Source: US8642784B2, “Biologically active compound N-[3-(4-nitrophenylamino)-indole-2-ilmethylene]aminoguanidine hydrochloride with anti-inflammatory activity” (priority 2010, dated 2014)
Where two headings read alike, the source gives them in different places. Marks after values point to notes of the source that are not given here.

Columns and labels:
mice stomach [1] = assay: Aggravation of ulcerogenic effects by 0.6H hydrochloric acid; format: in vivo; details: compound 2 100 mg/kg, indomethacin 20 mg/kg, voltaren 50 mg/kg, aminoguanidine 200 mg/kg, 1 hour before 0.6H HCl 5 ml/kg, after 4 hours
Method: (§1) Studies were performed according to the following scheme: • 1. […] Study of the compounds' ulcerogenic action using pharmaceutical dose during 7 days of administration. • 3. Aggravation of ulcerogenic effects of studied compounds by 0.6H hydrochloric acid. • 4. Aggravation of ulcerogenic effects of studied compounds by the known NSAIDs (indomethacin). 1.
(§2) Ulcerogenic effect was assessed using 4-point scale: 0—no damage; 0.5—hyperemia; 1—insignificant damage (1 or 2 small bleedings); 2—multiple damage (erosions, small bleedings); 3—significant and multiple damage (erosions, bleedings); 4—severe damage, affecting all gastric mucosa (massive bleedings, erosions, perforations).
(§3) Male mice with body mass 23-24 g were deprived of food for 24 hours, water access was not limited.
(§4) Drugs of comparison: indomethacin 20 mg/kg, voltaren—50 mg/kg and aminoguanidine—200 mg/kg. Each test group had 10 animals.

mice stomach [2] = format: in vivo; details: for Ulcerogenic effects of drugs of comparison: mice ulceration models, summary of table 4; for Average ulcerogenic index (4-point scale) of chronic administration of pharmacological dose: mice, per os 7 days, compound 2 200 mg/kg, indomethacin 20 mg/kg, voltaren 50 mg/kg, aminoguanidine 200 mg/kg
Method: as §1, §2
After 7 days the animals were sacrificed by CO2, their stomachs extracted and the number of ulcers counted.
as §4

[3] = test system: LPS-induced peritonitis in rats; assay: LPS-induced peritonitis in rats, volume of exudate; format: in vivo; details: rats; for ED50: LPS-induced peritonitis, per os
Method: (§5) Anti-exudative action was studied in male rate with body mass 170.0-180.0 g. Peritonitis was induced by intraperitoneal administration of lipopolysaccharide (LPS), produced from Escherichia coli (Sigma)—1.0 mg/kg as described in [6]: after 4 hours the animals were sacrificed by CO2, their peritoneal cavity opened and the volume of exudate was measured in ml. Studied compounds and drugs of comparison were administered per os one hour before LPS, control group was composed of rats receiving 0.3 ml of saline before LPS administration. Each group had 7 animals.
(§6) The results were processed using variation statistics methods for biological research (mean standard error, means were calculated using Student's t-distribution).

[4] = test system: LPS-induced peritonitis in mice; assay: LPS-induced peritonitis in mice, volume of exudate; format: in vivo
Method: Activity was studies using the methods listed in “Methodical recommendations on experimental (preclinical) research of new nonsteroidal anti-inflammatory drugs” for new compounds screening, in animal models of peritonitis induced by lipopolysaccharide (LPS) and carrageenan.
as §5, with “mice” for “rate”, “mice 22.0-23.0” for “mass 170.0-180.0”, “(Sigma) 1.0 mg/kg,” for “(Sigma)—1.0 mg/kg”, “mice” for “rats”, “10” for “7”
as §6

[5] = test system: carrageenan-induced peritonitis in mice; assay: Carrageenan-induced peritonitis in mice, volume of exudate; format: in vivo
Method: Research was carried out by a method described in [5]. Experiments were performed using male mice with body mass 23-24 g, in groups of 10 animals. […] The results were processed using variation statistics methods for biological research (mean standard error, means were calculated using Student's t-distribution).

mice stomach [6] = assay: Aggravation of ulcerogenic effect by indomethacin; format: in vivo; details: mice; compound 2 100 mg/kg, voltaren 50 mg/kg, aminoguanidine 200 mg/kg, 1 hour before indomethacin 20 mg/kg; after 5 hours
Method: as §1, §2, §3
Drugs of comparison: voltaren—50 mg/kg and aminoguanidine—200 mg/kg. Each test group had 10 animals.

[7] = biological target: inducible isoenzymes of NO-synthase (Homo sapiens, UniProt P35228); details: most in vitro systems; cited from earlier work
[8] = test system: constitutive forms of NO-synthase; details: compared with L-NMMA; cited from earlier work
animal models = details: in vivo; cited from earlier work

COc1ccc2c(c1)c(CC(=O)O)c(C)n2C(=O)c1ccc(Cl)cc1 [Indomethacin, indomethacin]
Average ulcerogenic index (4-point scale) of combining the studied compounds with hydrochloric acid (mice stomach [1]): 2.4 | Ulcerogenic effects of drugs of comparison (mice stomach [2]): had ulcerogenic effects | Average ulcerogenic index (4-point scale) of chronic administration of pharmacological dose (mice stomach [2]): 1.15

O=C(O)Cc1ccccc1Nc1c(Cl)cccc1Cl [Voltaren, sodium diclofenac]
ED50 ([3]; Rattus norvegicus, po, read-out: ED50): 20 ± 1.5 mg/kg | Anti-inflammatory activity in LPS-induced peritonitis model, % of control ([3]; 10.0 mg/kg per os): 22.0 % of control | Anti-inflammatory activity in LPS-induced peritonitis model, % of control ([3]; 25.0 mg/kg per os): 65.0* % of control | Anti-inflammatory activity in LPS-induced peritonitis model, % of control ([3]; 50.0 mg/kg per os): 84.0* % of control | Anti-inflammatory activity in LPS-induced peritonitis model, % of control ([3]; 75.0 mg/kg per os): 100.0* % of control | Average ulcerogenic index (4-point scale) of combining the studied compounds with hydrochloric acid (mice stomach [1]): 0.55 | Anti-inflammatory activity in LPS-induced peritonitis model, % of control ([4]; 25.0 mg/kg per os): 82.2* % of control | Anti-inflammatory activity in LPS-induced peritonitis model, % of control ([4]; 50.0 mg/kg per os): 95.6* % of control | Anti-inflammatory activity in LPS-induced peritonitis model, % of control ([4]; 100.0 mg/kg per os): 100.0* % of control | Anti-inflammatory activity in carrageenan-induced peritonitis model, % of control ([5]; 25.0 mg/kg per os): 80.4* % of control | Anti-inflammatory activity in carrageenan-induced peritonitis model, % of control ([5]; 50.0 mg/kg per os): 90.2* % of control | Anti-inflammatory activity in carrageenan-induced peritonitis model, % of control ([5]; 100.0 mg/kg per os): 100.0* % of control | Ulcerogenic effects of drugs of comparison (mice stomach [2]): had ulcerogenic effects | Average ulcerogenic index (4-point scale) of chronic administration of pharmacological dose (mice stomach [2]): 0.35 | Average ulcerogenic index (4-point scale) of combining the studied compounds with indomethacin (mice stomach [6]): 2.5

N=C(N)NN [Aminoguanidine, N-aminoguanidine]
Inhibition of inducible isoenzymes of NO-synthase [7]: equally effective in inhibiting inducible isoenzymes | Anti-inflammatory activity in LPS-induced peritonitis model, % of control ([3]; 25.0 mg/kg per os): 4.0 % of control | Anti-inflammatory activity in LPS-induced peritonitis model, % of control ([3]; 50.0 mg/kg per os): 22.0* % of control | Anti-inflammatory activity in LPS-induced peritonitis model, % of control ([3]; 75.0 mg/kg per os): 58.0* % of control | Anti-inflammatory activity in LPS-induced peritonitis model, % of control ([3]; 100.0 mg/kg per os): 78.0* % of control | Anti-inflammatory activity in LPS-induced peritonitis model, % of control ([3]; 200.0 mg/kg per os): 100.0* % of control | ED50 [3]: 70.0 ± 2.5 mg/kg | Average ulcerogenic index (4-point scale) of combining the studied compounds with hydrochloric acid (mice stomach [1]): 0.15 | Anti-inflammatory activity in LPS-induced peritonitis model, % of control ([4]; 50.0 mg/kg per os): 51.1* % of control | Anti-inflammatory activity in LPS-induced peritonitis model, % of control ([4]; 100.0 mg/kg per os): 73.3* % of control | Anti-inflammatory activity in LPS-induced peritonitis model, % of control ([4]; 200.0 mg/kg per os): 91.1* % of control | Activity towards constitutive forms of NO-synthase [8]: much less active towards constitutive forms | Anti-inflammatory activity in carrageenan-induced peritonitis model, % of control ([5]; 50.0 mg/kg per os): 25.5* % of control | Anti-inflammatory activity in carrageenan-induced peritonitis model, % of control ([5]; 100.0 mg/kg per os): 70.6* % of control | Anti-inflammatory activity in carrageenan-induced peritonitis model, % of control ([5]; 200.0 mg/kg per os): 84.3* % of control | Average ulcerogenic index (4-point scale) of chronic administration of pharmacological dose (mice stomach [2]): 0 | Average ulcerogenic index (4-point scale) of combining the studied compounds with indomethacin (mice stomach [6]): 0.19 | Effect in animal models of inflammation, septic shock, endotoxin (animal models): reduces the severity of inflammation and septic shock, improves survival during endotoxin administration
